# Data: ChEMBL document CHEMBL6134871, “PCSK9 Targeted Autophagosome-Tethering Compounds: Design, Synthesis, and Antiatherosclerosis Evaluation” (J Med Chem, 2025)
# Active and inactive are the calls of the source. The calls are words filed in the database; no cut-off is given here.
# What was measured:
# [1] = AUC (0 to infinity) in C57 mouse at 5 mg/kg, po; assay type: ADME, organism-based; conditions: in vivo
# [2] = AUC (0 to infinity) in C57 mouse at 5 mg/kg, iv; assay type: ADME, organism-based; conditions: in vivo
# [3] = Bioavailability in C57 mouse at 5 mg/kg, ip; assay type: ADME, organism-based; conditions: in vivo
# [4] = AUC (0 to t) in C57 mouse at 5 mg/kg, ip; assay type: ADME, organism-based; conditions: in vivo
# [5] = Tmax in C57 mouse at 5 mg/kg, po; assay type: ADME, organism-based; conditions: in vivo
# [6] = AUC (0 to t) in C57 mouse at 5 mg/kg, iv; assay type: ADME, organism-based; conditions: in vivo
# [7] = Cmax in C57 mouse at 5 mg/kg, ip; assay type: ADME, organism-based; conditions: in vivo
# [8] = AUC (0 to t) in C57 mouse at 5 mg/kg, po; assay type: ADME, organism-based; conditions: in vivo
# [9] = Oral bioavailability in C57 mouse at 5 mg/kg; assay type: ADME, organism-based; conditions: in vivo
# [10] = AUC (0 to infinity) in C57 mouse at 5 mg/kg, ip; assay type: ADME, organism-based; conditions: in vivo
# [11] = Cmax in C57 mouse at 5 mg/kg, po; assay type: ADME, organism-based; conditions: in vivo
# [12] = Tmax in C57 mouse at 5 mg/kg, ip; assay type: ADME, organism-based; conditions: in vivo
# Huh-7 [13] = test: Induction of autophagy in human Huh-7 cells assessed as colocalization of lysosome with LAMP1 protein at 100 nM incubated for 3 hrs by DAPI staining based fluorescence based analysis; assay type: functional, cell-based
# Huh-7 [14] = test: Induction of autophagy in human Huh-7 cells assessed as colocalization of lysosome with LC3B protein at 100 nM incubated for 3 hrs by DAPI staining based fluorescence based analysis; assay type: functional, cell-based
# HUVEC [15] = test: Anti-atherosclerosis activity in human HUVEC cells transfected with PCSK9 siRNA assessed as inhibition of LPS-induced ICAM-1 mRNA expression at 100 nM preincubated with compound for 24 hrs followed by LPS induction and measured after 24 hrs by qPCR analysis; assay type: functional, cell-based; conditions: time 48.0 hrs
# Mus musculus [16] = test: Anti-atherosclerosis activity in mouse assessed as reduction in LDLR level in liver at 15 mg/kg, po measured for 3 weeks by Western blot analysis; assay type: functional, organism-based
# HUVEC [17] = test: Antiproliferative activity human HUVEC cells assessed as inhibition of cell growth incubated for 24 hrs by MTT assay; assay type: toxicity, cell-based
# THP-1 [18] = test: Antiproliferative activity human THP-1 cells assessed as inhibition of cell growth incubated for 24 hrs by MTT assay; assay type: functional, cell-based
# THP-1 [19] = test: Anti-atherosclerosis activity in human THP-1 cells transfected with PCSK9 siRNA assessed as reduction in NLRP3 level at 100 nM preincubated with compound for 24 hrs followed by ox-LDL induction and measured after 24 hrs by Western blot analysis; assay type: functional, cell-based; conditions: time 48.0 hrs
# MOVAS [20] = test: Antiproliferative activity mouse MOVAS cells assessed as inhibition of cell growth incubated for 24 hrs by MTT assay; assay type: functional, cell-based
# HUVEC [21] = test: Anti-atherosclerosis activity in human HUVEC cells transfected with PCSK9 siRNA assessed as increase in Bcl-2 level at 100 nM incubated for 24 hrs by Western blot analysis; assay type: functional, cell-based
# Huh-7 [22] = test: Induction of autophagy in human Huh-7 cells assessed as reduction in PCSK9 level at 100 nM incubated for 24 hrs in presence of EBSS by Western blot analysis; assay type: functional, cell-based
# Huh-7 [23] = test: Induction of autophagy in human Huh-7 cells assessed as reduction in PCSK9 level at 100 nM incubated for 24 hrs in presence of carfilzomib by Western blot analysis; assay type: functional, cell-based
# [24] = Toxicity in mouse assessed as heart damage at 5 to 15 mg/kg, po; assay type: organism-based; conditions: in vivo, dose 5-15 mg/kg
# THP-1 [25] = test: Anti-atherosclerosis activity in human THP-1 cells transfected with PCSK9 siRNA assessed as reduction in NF-kappaB level at 100 nM preincubated with compound for 24 hrs followed by ox-LDL induction and measured after 24 hrs by Western blot analysis; assay type: functional, cell-based; conditions: time 48.0 hrs
# Huh-7 [26] = test: Induction of LDL uptake in human Huh-7 cells at 100 nM incubated for 24 hrs by DiI-LDL DMEM staining based fluorescence microplate reader assay; assay type: functional, cell-based
# HUVEC [27] = test: Anti-atherosclerosis activity in human HUVEC cells transfected with PCSK9 siRNA assessed as inhibition of LPS-induced VCAM-1 mRNA expression at 100 nM preincubated with compound for 24 hrs followed by LPS induction and measured after 24 hrs by qPCR analysis; assay type: functional, cell-based; conditions: time 48.0 hrs
# [28] = Toxicity in mouse assessed as change in body weight at 5 to 15 mg/kg, po; assay type: organism-based; conditions: in vivo, dose 5-15 mg/kg
# Huh-7 [29] = test: Induction of autophagy in human Huh-7 cells assessed as reduction in PCSK9 level at 37 uM incubated for 24 hrs in presence of chloroquine by Western blot analysis; assay type: functional, cell-based
# Mus musculus [30] = test: Anti-atherosclerosis activity in mouse assessed as reduction in PCSK9 level in liver at 15 mg/kg, po measured for 3 weeks by Western blot analysis; assay type: functional, organism-based
# Mus musculus [31] = test: Anti-atherosclerosis activity in mouse assessed as reduction in TC level in plasma at 15 mg/kg, po measured for 3 weeks; assay type: functional, organism-based
# Mus musculus [32] = test: Anti-atherosclerosis activity in mouse assessed as reduction in NLRP3 level in liver at 15 mg/kg, po measured for 3 weeks by Western blot analysis; assay type: functional, organism-based
# HepG2 = test: Antiproliferative activity human HepG2 cells assessed as inhibition of cell growth incubated for 24 hrs by MTT assay; assay type: functional, cell-based
# [33] = Toxicity in mouse assessed as kidney damage at 5 to 15 mg/kg, po; assay type: organism-based; conditions: in vivo, dose 5-15 mg/kg
# HUVEC [34] = test: Anti-atherosclerosis activity in human HUVEC cells transfected with PCSK9 siRNA assessed as inhibition of ox-LDL-induced caspase 9 expression at 100 nM preincubated with compound for 24 hrs followed by ox-LDL induction and measured after 24 hrs by Western blot analysis; assay type: functional, cell-based; conditions: time 48.0 hrs
# HUVEC [35] = test: Anti-atherosclerosis activity in human HUVEC cells assessed as reduction in Bax level at 100 nM incubated for 24 hrs by Western blot analysis; assay type: functional, cell-based
# Mus musculus [36] = test: Anti-atherosclerosis activity in mouse assessed as reduction in NF-kappab level in liver at 15 mg/kg, po measured for 3 weeks by Western blot analysis; assay type: functional, organism-based
# MOVAS [37] = test: Downregulation of PCSK9 expression in mouse MOVAS cells transfected with PCSK9 siRNA incubated for 24 hrs Western blot analysis; assay type: functional, cell-based
# Mus musculus [38] = test: Anti-atherosclerosis activity in mouse assessed as […] in LDL level in liver at 15 mg/kg, po measured for 3 weeks; assay type: functional, organism-based
# THP-1 [39] = test: Anti-atherosclerosis activity in human THP-1 cells transfected with PCSK9 siRNA assessed as reduction in ox-LDL-induced amount of red lipid droplets at 100 nM preincubated with compound for 24 hrs followed by ox-LDL induction and measured after 24 hrs by oil red staining based analysis; assay type: functional, cell-based; conditions: time 48.0 hrs
# THP-1 [40] = test: Anti-atherosclerosis activity in human THP-1 cells transfected with PCSK9 siRNA assessed as reduction in CD36 level at 100 nM preincubated with compound for 24 hrs followed by ox-LDL induction and measured after 24 hrs by Western blot analysis; assay type: functional, cell-based; conditions: time 48.0 hrs
# HUVEC [41] = test: Anti-atherosclerosis activity in human HUVEC cells transfected with PCSK9 siRNA assessed as inhibition of ox-LDL-induced caspase 3 expression at 100 nM preincubated with compound for 24 hrs followed by ox-LDL induction and measured after 24 hrs by Western blot analysis; assay type: functional, cell-based; conditions: time 48.0 hrs
# Mus musculus [42] = test: Anti-atherosclerosis activity in mouse assessed as reduction in plaque area in aorta at 15 mg/kg, po measured for 3 weeks; assay type: functional, organism-based
# Huh-7 [43] = test: Antiproliferative activity human Huh-7 cells assessed as inhibition of cell growth incubated for 24 hrs by MTT assay; assay type: functional, cell-based
structure (smiles),measurement,setting,value
COc1cc2c(cc1OCCCCN1C(=O)/C(=C\c3cc(Br)c(O)c(OC)c3)c3cc(Br)ccc31)C(C)(CC(=O)Nc1nccs1)NCC2 (stereo not given),AUC(0-inf),"[1]; C57, mouse",119 ng·h/mL
same,AUC(0-inf),"[2]; C57, mouse",10600 ng·h/mL
same,bioavailability,[3],9.69%
same,AUC(0-t),[4],951 ng·h/mL
same,Tmax,[5],60 min
same,AUC(0-t),[6],9810 ng·h/mL
same,Cmax,[7],423 ng/mL
same,AUC(0-t),[8],101 ng·h/mL
same,bioavailability,"[9]; C57, mouse",1.02%
same,AUC(0-inf),[10],987 ng·h/mL
same,Cmax,[11],55 ng/mL
same,Tmax,[12],60 min
O=C1Nc2ccc(I)cc2/C1=C/c1cc(Br)c(O)c(Br)c1,Activity,Huh-7 [13],inactive
same,Activity,Huh-7 [14],inactive
COc1cc2c(cc1O)C(C)(CC(=O)Nc1nccs1)NCC2 (stereo not given),Activity,Huh-7 [13],inactive
same,Activity,Huh-7 [14],inactive
COc1cc2c(cc1OCCOCCOCCOCCN1C(=O)/C(=C\c3cc(Br)c(O)c(Br)c3)c3cc(I)ccc31)C(C)(CC(=O)Nc1nccs1)NCC2 (stereo not given),Activity,Huh-7 [13],Active
same,AUC,"[1]; mouse, po, 5 mg/kg",177 ng·h/mL
same,AUC,"[2]; mouse, iv, 5 mg/kg",9932 ng·h/mL
same,Activity,HUVEC [15],Active
same,Activity,Mus musculus [16],Active
same,bioavailability,[3],63.9%
same,AUC(0-t),[4],6070 ng·h/mL
same,Activity,HUVEC [17],Non-toxic
same,Activity,THP-1 [18],Active
same,Activity,Huh-7 [14],Active
same,Activity,THP-1 [19],Active
same,Activity,MOVAS [20],Active
same,Tmax,[5],15 min
same,Activity,HUVEC [21],Active
same,Activity,Huh-7 [22],Active
same,Activity,Huh-7 [23],Active
same,Activity,[24],Non-toxic
same,Activity,THP-1 [25],Active
same,AUC(0-t),[6],9500 ng·h/mL
same,Activity,Huh-7 [26],Active
same,Cmax,[7],1860 ng/mL
same,Activity,HUVEC [27],Active
same,AUC(0-t),[8],59.8 ng·h/mL
same,Activity,[28],Non-toxic
same,F,"[9]; mouse, po, 5 mg/kg",0.63%
same,Activity,Huh-7 [29],inactive
same,Activity,Mus musculus [30],Active
same,Activity,Mus musculus [31],Active
same,Activity,Mus musculus [32],Active
same,Activity,HepG2,Active
same,AUC(0-inf),[10],6350 ng·h/mL
same,Cmax,[11],57.8 ng/mL
same,Activity,[33],Non-toxic
same,Activity,HUVEC [34],Active
same,Activity,HUVEC [35],Active
same,Activity,Mus musculus [36],Active
same,Activity,MOVAS [37],Active
same,Activity,Mus musculus [38],Active
same,Activity,THP-1 [39],Active
same,Activity,THP-1 [40],Active
same,Tmax,[12],30 min
same,Activity,HUVEC [41],Active
same,Activity,Mus musculus [42],Active
same,Activity,Huh-7 [43],Active
